This is an account of results in article PMC4669759 (Cell Death & Disease, 2015).

For test [1], the system named is EJ-1 cells. Description: Navitoclax / A-1210477 combination cell viability, EJ-1 cells. The class given is cell-based. The note with it: EJ-1, 48 h. The procedure:
Figure 6 A-1210477 synergizes with navitoclax to kill hematological and solid tumor cell lines. BxPC-3, EJ-1, H23, and OPM-2 cells were treated with increasing concentrations of navitoclax in the presence or absence of increasing concentrations of A-1210477 for 48 h before assessing cell viability. All data points represent the means of triplicate experiments, with error bars indicating the S.E.M. TEXT PRINTED IN THE PICTURE: A-1210477 + navitoclax: Bliss sum (BxPC-3): 716; Bliss sum (EJ-1): 464; Bliss sum (H23): 76; Bliss sum (OPM-2): 946 DOUBTS OF THE COPYIST ABOUT THIS PICTURE: The Bliss sums apply to the combination of A-1210477 and navitoclax. The picture prints the two names separately (legend heading and axis title), not as one joined label.
(§1) Adherent cell lines were seeded at 50 000 cells per well in 96-well plates and treated for 48 h with compounds diluted in half-log steps starting at 30 μM and ending at 0.001 μM. Multiple myeloma cell lines were seeded at 15 000–20 000 cells per well and treated similarly. Effects on proliferation and viability were determined using CellTiter-Glo reagent from Promega (Madison, WI, USA) according to the manufacturer's instructions. IC50 values were determined by non-linear regression analysis of the concentration response data.

The subject of test [2] is NOXA. Put plainly: NOXA levels by immunoblotting in HCC-1806 cells. The class given is cell-based. The note with it: 8 h, up to 20 μM. The procedure: (§2) Figure 1 MCL-1 levels are elevated in cancer cells after treatment with MCL-1-binding small molecules. (a) H929 multiple myeloma cells were treated for 4 h with 10 μM A-1210477 before immunopreciptating MCL-1. […] A control H929 lysate was run in lane 1, and an immunoprecipitation with a non-specific antibody (Ig) was run in lane 2. The positions of molecular weight markers (specified in kiloDaltons) are indicated on the left. (b) HCC-1806 breast cancer cells were incubated with increasing concentrations of A-1210477 (0.1, 0.5, 1, 5, 10, 15, or 20 μM) or bortezomib (2, 10, or 50 nM) for 8 h before assessing MCL-1 and NOXA levels by immunoblotting. β-Actin was probed as a protein loading control. The lower graph depicts reverse transcriptase-PCR quantification of MCL1 mRNA from HCC-1806 cells treated for 8 h with similar concentrations of A-1210477. (c) HCC-1806 cells were incubated with increasing concentrations (0.1, 0.5, 1, 5, 10, and 20 μM) of A-954248, A-962653, or A-1248767 for 24 h before assessing MCL-1 and BCL-XL levels by immunoblotting. β-Actin was probed as a protein loading control
Cells were scraped into cold PBS, pelleted, and then resuspended in 100–200 μl ice-cold insect cell lysis buffer supplemented with protease inhibitors (BD Biosciences Pharmingen, San Diego, CA, USA). Cells were lysed by sonication, and the debris was cleared in a microcentrifuge. […]
Background: In western blotting, separated proteins are transferred to a membrane and probed.

Test [3] relates to MCL1 mRNA. Description: MCL1 mRNA by reverse transcriptase-PCR in HCC-1806 cells. The test is classed as cell-based. The note with it: 8 h. The procedure:
as §2

In test [4] the test system is H23 cells. Put plainly: Cell viability, H23 cells. The class given is cell-based, human. As for the experimental part:
Figure 5 A-1210477 kills MCL-1-dependent NSCLC cancer cell lines. NSCLC cell lines (a) H2110 or (c) H23 were transfected with a construct expressing the MCL1 CDS tagged with a Flag epitope or empty control vector. These cells were subsequently transfected with siRNAs targeting the MCL1 CDS, the MCL1 3′ UTRa or UTRb, or a scrambled control sequence. Cell viability was assessed 72 h later with MCL-1 and Flag immunoblots performed in parallel. (b) H2110 or (d) H23 cells were treated with increasing concentrations of A-1210477 for 72 h before assessing cell viability.
as §1

The subject of test [5] is RS4;11 cell line. Put plainly: Cell viability, RS4;11 cells. The class given is cell-based. The note with it: RS4;11, 48 h. The procedure: Figure 4 Indole-2-carboxylic acids induce the hallmarks of apoptosis in MCL-1-dependent cancer cell line H929. (a) Digitonin-permeabilized H929 cells were treated with 10 μM BH3 peptides for 4 h, and intact H929 cells were incubated with increasing concentrations (0.1–10 μM) of A-1208746 for 4 h before assessing the levels of cytochrome c released into the cytosol. (b) H929 and RS4;11 cells were incubated with increasing concentrations of MCL-1 inhibitors or the BCL-2-selective inhibitor ABT-199 (venetoclax) for 48 h before determining cell viability. Cell killing IC50s are plotted with each value representing the mean of three separate experiments. Error bars represent the S.E.M. (c) H929 cells were incubated with increasing concentrations of MCL-1 inhibitors in the presence or absence of the pan-caspase inhibitor QVD (100 μM) for 4 h before assessing caspase-3/-7 activation, mitochondrial membrane polarization, and the exposure of phosphatidylserine. […]
Adherent cell lines were seeded at 50 000 cells per well in 96-well plates and treated for 48 h with compounds diluted in half-log steps starting at 30 μM and ending at 0.001 μM. […] Effects on proliferation and viability were determined using CellTiter-Glo reagent from Promega (Madison, WI, USA) according to the manufacturer's instructions. IC50 values were determined by non-linear regression analysis of the concentration response data.

What is called IC50 is the concentration that gives 50% inhibition. The low end stands for greater potency in that assay, the high end for weaker potency in that assay. By EC50 is commonly meant the concentration giving half of the maximal effect. Higher therefore signals a less potent agent. `Cc1nn(C)c(COc2ccc(N3CCN(S(=O)(=O)N(C)C)CC3)cc2)c1-c1cccc2c(CCCOc3cccc4ccccc34)c(C(=O)O)n(CCN3CCOCC3)c12` [A-1210477]: the potentiation of navitoclax result in test [1] is “substantially shifted the dose–response curve of navitoclax”. The “effect on NOXA levels” value in test [2] is “no effect”. Moreover, the “effect on MCL1 mRNA” value in test [3] is “No corresponding increase in MCL1 mRNA”. The IC50 in test [4] (H23) is less than 10 µM. In test [4] (H23, 72 h), this molecule showed an EC50 of 7.2 µM. Besides, the “effect on cell viability” value in test [5] is recorded as “no effect”.
